In patent publication US10294202B2, “Pyrrolidinones as herbicides” (FMC Corporation, priority 2013, dated 2019):

How the values were obtained:
corn = experiment: Test C pre-/postemergence herbicide test; format: in vivo, Zea mays
Method in brief: (§1)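 Test compounds, formulated in a surfactant-containing non-phytotoxic solvent blend, are applied to seeded loam/sand soil (preemergence) and to young plants at the 1- to 4-leaf stage in peat-based medium (postemergence). Plants stay 13 to 15 days under greenhouse conditions, then are scored visually relative to controls, 0 = no effect, 100 = complete control.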

velvetleaf = experiment: Test C pre-/postemergence herbicide test; format: in vivo, Abutilon theophrasti
Method in brief: as §1

giant foxtail = experiment: Test A pre-/postemergence herbicide test; format: in vivo, Setaria faberii; conditions: for Foxtail, Giant plant response rating: Preemergence, visual rating on 0 to 100 scale (0 no effect, 100 complete control)
Method in brief: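 Planted in loam–sand blend; treated the same day preemergence by directed soil spray, while separately grown plants at one- to two-leaf stage got postemergence spray. Compared visually with untreated controls after approximately 10 days; 100 means complete control.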

crabgrass, large = experiment: Test C pre-/postemergence herbicide test; format: in vivo, Digitaria sanguinalis
Method in brief: as §1

pigweed = experiment: Test C pre-/postemergence herbicide test; format: in vivo, Amaranthus retroflexus
Description: (§2) Seeds of plant species selected from blackgrass (Alopecurus myosuroides), ryegrass, Italian (Italian ryegrass, Lolium multiflorum), wheat (winter wheat, Triticum aestivum), galium (catchweed bedstraw, Galium aparine), corn (Zea mays), crabgrass, large (large crabgrass, Digitaria sanguinalis), foxtail, giant (giant foxtail, Setaria faberii), johnsongrass (Sorghum halepense), lambsquarters (Chenopodium album), morningglory (Ipomoea coccinea), nutsedge, yellow (yellow nutsedge, Cyperus esculentus), pigweed (Amaranthus retroflexus), ragweed (common ragweed, Ambrosia elatior), soybean (Glycine max), barnyardgrass (Echinochloa crus-galli), oilseed rape (Brassica napus), waterhemp (common waterhemp, Amaranthus rudis), kochia (Kochia scoparia), oat, wild (wild oat, Avena fatua), surinam grass (Brachiaria decumbens), foxtail, green (green foxtail, Setaria viridis), goosegrass (Eleusine indica), bromegrass, downy (downy bromegrass, Bromus tectorum), nightshade (eastern black nightshade, Solanum ptycanthum), cocklebur (common cocklebur, Xanthium strumarium), cupgrass, woolly (woolly cupgrass, Eriochloa villosa), bermudagrass (Cynodon dactylon), sunflower, (common oilseed sunflower, Helianthus annuus), Russian thistle (Salsola kali) and velvetleaf (Abutilon theophrasti) were planted into a blend of loam soil and sand and treated preemergence with test chemicals formulated in a non-phytotoxic solvent mixture which included a surfactant. At the same time, plants selected from these crop and weed species and also barley (winter barley, Hordeum vulgare), […]), chickweed (common chickweed, Stellaria media), deadnettle (henbit deadnettle, Lamium amplexicaule), and canarygrass (littleseed canarygrass, Phalaris minor) were planted in pots containing Redi-Earth® planting medium (Scotts Company, 14111 Scottslawn Road, Marysville, Ohio 43041) comprising spaghnum peat moss, vermiculite, wetting agent and starter nutrients and treated with postemergence applications of test chemicals formulated in the same manner. Plants ranged in height from 2 to 18 cm (1- to 4-leaf stage) for postemergence treatments. Treated plants and controls were maintained in a greenhouse for 13 to 15 days, after which time all species were compared to controls and visually evaluated. Plant response ratings, summarized in Table C, are based on a scale of 0 to 100 where 0 is no effect and 100 is complete control. A dash (-) response means no test result.

barnyardgrass = experiment: Test B flooded paddy test; format: in vivo, Echinochloa crus-galli; conditions: 250 g ai/ha, Flood; scale of 0 to 100 where 0 is no effect and 100 is complete control
Method in brief: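 Treatment was made at the 2-leaf stage by dosing the standing floodwater, kept 3 cm above soil level for the whole test. Greenhouse exposure lasted 13 to 15 days. Response is a visual percent rating relative to controls, where a dash indicates no test result.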

foxtail, giant = experiment: Test C pre-/postemergence herbicide test; format: in vivo, Setaria faberii
Description: as §2

[1] = Postemergence, 31 g ai/ha, scale 0 (no effect) to 100 (complete control)
[2] = Postemergence, 62 g ai/ha, scale 0 to 100 (0 no effect, 100 complete control)
[3] = Postemergence, 125 g ai/ha, scale 0 to 100 (0 no effect, 100 complete control)
[4] = Postemergence, 250 g ai/ha, scale 0 to 100 (0 no effect, 100 complete control)
[5] = Postemergence, 125 g ai/ha, 0 to 100 scale, 0 no effect, 100 complete control
[6] = Postemergence, 500 g ai/ha, 0 to 100 scale (0 no effect, 100 complete control)
[7] = preemergence, 500 g ai/ha, 0 to 100 scale
[8] = Preemergence, 62 g ai/ha, scale 0 to 100
[9] = Preemergence, 125 g ai/ha, scale 0 to 100 (0 no effect, 100 complete control)
[10] = Preemergence, 31 g ai/ha, scale 0 to 100 (0 no effect, 100 complete control)
[11] = Preemergence, 31 g ai/ha, scale 0 to 100, 0 is no effect and 100 is complete control

Compound	Plant response rating, Corn (corn; [1])	Plant response rating, Corn (corn; [2])	Plant response rating, Corn (corn; [3])	Plant response rating, Velvetleaf (velvetleaf; [1])	Plant response rating, Velvetleaf (velvetleaf; [2])	Plant response rating, Velvetleaf (velvetleaf; [3])	Plant response rating, Foxtail, Giant (giant foxtail; [5])	Plant response rating, Foxtail, Giant (giant foxtail; [6])	Foxtail, Giant plant response rating (giant foxtail; 125 g ai/ha)	Plant response rating, Foxtail, Giant (giant foxtail; [7])	Plant response rating, Crabgrass, Large (crabgrass, large; [1])	Plant response rating, Crabgrass, Large (crabgrass, large; [2])	Plant response rating, Crabgrass, Large (crabgrass, large; [3])	Plant response rating, Pigweed (pigweed; [2])	Plant response rating, Pigweed (pigweed; [3])	Plant response rating, Barnyardgrass (barnyardgrass)	Plant response rating, Foxtail, Giant (foxtail, giant; [1])	Plant response rating, Foxtail, Giant (foxtail, giant; [2])	Plant response rating, Foxtail, Giant (foxtail, giant; [3])	Plant response rating, Corn (corn; [8])	also measured
O=C1NCC(c2cc(F)c(F)cc2F)C1C(=O)Nc1cccc(F)c1F (stereo not shown) [Compound 50]	0	0	5	0	15	25	80	80	90	90	10	25	40	10	20	0	0	5	5	–	Plant response rating, Corn (corn; [4]): 5; Plant response rating, Velvetleaf (velvetleaf; [4]): 45; Plant response rating, Crabgrass, Large (crabgrass, large; [4]): 75; Plant response rating, Pigweed (pigweed; [1]): 10; Plant response rating, Pigweed (pigweed; [4]): 20; Plant response rating, Foxtail, Giant (foxtail, giant; [4]): 10
O=C1NCC(c2ccc(F)c(Cl)c2)C1C(=O)Nc1ccccc1F (stereo not shown) [Compound 60]	0	0	0	0	0	5	80	80	90	90	20	50	75	20	20	30	0	15	30	10	Plant response rating, Corn (corn; [9]): 20; Corn plant response rating (corn; [10]): 0; Plant response rating, Velvetleaf (velvetleaf; [8]): 0; Plant response rating, Velvetleaf (velvetleaf; [9]): 0; Plant response rating, Crabgrass, Large (crabgrass, large; [8]): 95; Plant response rating, Crabgrass, Large (crabgrass, large; [9]): 95; Crabgrass, Large plant response rating (crabgrass, large; [10]): 85; Plant response rating, Pigweed (pigweed; [8]): 10; Plant response rating, Pigweed (pigweed; [9]): 20; Plant response rating, Foxtail, Giant (foxtail, giant; [8]): 85; Plant response rating, Foxtail, Giant (foxtail, giant; [9]): 90; Foxtail, Giant plant response rating (foxtail, giant; [10]): 70
O=C1NCC(c2cccc(OC(F)(F)F)c2)C1C(=O)Nc1ccccc1F (stereo not shown) [Compound 69]	–	–	–	–	–	–	80	80	90	90	–	–	–	–	–	40	–	–	–	15	Corn plant response rating (corn; [11]): 15; Plant response rating, Corn (corn; [9]): 25; Plant response rating (scale of 0 to 100), Corn (corn; Preemergence, 250 g ai/ha): 30; Velvetleaf plant response rating (velvetleaf; [11]): 30; Plant response rating, Velvetleaf (velvetleaf; [8]): 30; Plant response rating, Velvetleaf (velvetleaf; [9]): 30; Plant response rating (scale of 0 to 100), Velvetleaf (velvetleaf; Preemergence, 250 g ai/ha): 30; Crabgrass, Large plant response rating (crabgrass, large; [11]): 90; Plant response rating, Crabgrass, Large (crabgrass, large; [8]): 90; Plant response rating, Crabgrass, Large (crabgrass, large; [9]): 95; Plant response rating (scale of 0 to 100), Crabgrass, Large (crabgrass, large; Preemergence, 250 g ai/ha): 95; Pigweed plant response rating (pigweed; [11]): 15; Plant response rating, Pigweed (pigweed; [8]): 25; Plant response rating, Pigweed (pigweed; [9]): 25; Plant response rating (scale of 0 to 100), Pigweed (pigweed; Preemergence, 250 g ai/ha): 25; Foxtail, Giant plant response rating (foxtail, giant; [11]): 75; Plant response rating, Foxtail, Giant (foxtail, giant; [8]): 85; Plant response rating, Foxtail, Giant (foxtail, giant; [9]): 85; Plant response rating (scale of 0 to 100), Foxtail, Giant (foxtail, giant; Preemergence, 250 g ai/ha): 90
